Among the data in ChEMBL document CHEMBL2203246, “Design and biological evaluation of imidazo[1,2-a]pyridines as novel and potent ASK1 inhibitors” (Bioorg Med Chem Lett, 2012) are IC50, logD and inhibition values, retold here.

The source made the active and inactive calls. The calls are words filed in the database; no cut-off is given here. Where only a bound is given, the exact number is not on record here.

The target in series [1] is T1, Mitogen-activated protein kinase kinase kinase 5 (Homo sapiens, UniProt Q99683).
T1 sequence (Q99683 whole entry): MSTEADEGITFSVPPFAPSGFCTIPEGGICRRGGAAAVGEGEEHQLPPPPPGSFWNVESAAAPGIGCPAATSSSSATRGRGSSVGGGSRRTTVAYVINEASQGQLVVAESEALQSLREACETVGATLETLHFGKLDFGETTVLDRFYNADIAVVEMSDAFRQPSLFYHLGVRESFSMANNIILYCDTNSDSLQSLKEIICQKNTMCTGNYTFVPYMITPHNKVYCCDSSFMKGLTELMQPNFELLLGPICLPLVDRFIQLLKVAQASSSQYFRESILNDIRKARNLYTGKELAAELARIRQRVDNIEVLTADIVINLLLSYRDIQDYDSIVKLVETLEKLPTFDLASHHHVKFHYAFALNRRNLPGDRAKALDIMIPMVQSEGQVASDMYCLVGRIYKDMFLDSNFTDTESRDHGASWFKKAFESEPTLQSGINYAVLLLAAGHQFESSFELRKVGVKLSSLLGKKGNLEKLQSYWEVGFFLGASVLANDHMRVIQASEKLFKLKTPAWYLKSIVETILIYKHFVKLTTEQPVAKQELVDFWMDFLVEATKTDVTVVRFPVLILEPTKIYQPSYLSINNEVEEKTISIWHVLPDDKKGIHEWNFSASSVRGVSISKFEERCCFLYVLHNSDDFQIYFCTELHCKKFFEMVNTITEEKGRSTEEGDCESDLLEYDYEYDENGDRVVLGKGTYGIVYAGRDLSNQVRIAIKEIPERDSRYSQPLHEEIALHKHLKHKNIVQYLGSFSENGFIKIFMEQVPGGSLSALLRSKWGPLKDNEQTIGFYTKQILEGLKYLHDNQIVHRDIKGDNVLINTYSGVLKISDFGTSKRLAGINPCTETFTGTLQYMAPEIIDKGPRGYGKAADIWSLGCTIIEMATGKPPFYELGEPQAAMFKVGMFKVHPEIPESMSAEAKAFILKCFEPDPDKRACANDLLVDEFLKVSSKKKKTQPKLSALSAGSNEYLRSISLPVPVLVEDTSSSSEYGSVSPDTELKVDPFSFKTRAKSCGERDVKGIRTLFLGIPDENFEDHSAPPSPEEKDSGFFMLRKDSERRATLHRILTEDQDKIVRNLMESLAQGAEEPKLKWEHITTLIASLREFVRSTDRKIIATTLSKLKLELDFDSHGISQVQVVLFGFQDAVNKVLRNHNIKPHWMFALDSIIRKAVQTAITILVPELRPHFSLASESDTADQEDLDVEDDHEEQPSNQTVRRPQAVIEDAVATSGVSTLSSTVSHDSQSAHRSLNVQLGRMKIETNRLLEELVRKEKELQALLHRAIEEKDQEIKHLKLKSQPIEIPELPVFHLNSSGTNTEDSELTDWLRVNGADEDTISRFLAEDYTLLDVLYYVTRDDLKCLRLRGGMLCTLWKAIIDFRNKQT
Put plainly: Competitive inhibition of human recombinant N-terminal FLAG-tagged ASK1 expressed in baculovirus infected […] cells after 60 mins by scintillation counting analysis in presence of [gamma-33P]ATP.

The nature of the next series: physchem. The note with it: buffer, pH 7.4.
Series [2] concerns INS1. Put plainly: Inhibition of ASK1 in rat INS1 ([…]) cells assessed as downregulation of streptozotocin-induced p38 phosphorylation incubated for 1 hr prior to streptozotocin induction measured after 1 hr by Western blot analysis. The class given is cell-based.
Series [3] has as its system INS1. Put plainly: Inhibition of ASK1 in rat INS1 ([…]) cells assessed as downregulation of streptozotocin-induced JNK phosphorylation at 0.3 to 10 uM incubated for 1 hr prior to streptozotocin induction measured after 1 hr by Western blot analysis. The class given is cell-based.
The target of series [4] is Serine/threonine-protein kinase B-raf (Homo sapiens, UniProt P15056). The series can be described thus: Inhibition of BRAF.
Serine/threonine-protein kinase B-raf, sequence (P15056 whole entry): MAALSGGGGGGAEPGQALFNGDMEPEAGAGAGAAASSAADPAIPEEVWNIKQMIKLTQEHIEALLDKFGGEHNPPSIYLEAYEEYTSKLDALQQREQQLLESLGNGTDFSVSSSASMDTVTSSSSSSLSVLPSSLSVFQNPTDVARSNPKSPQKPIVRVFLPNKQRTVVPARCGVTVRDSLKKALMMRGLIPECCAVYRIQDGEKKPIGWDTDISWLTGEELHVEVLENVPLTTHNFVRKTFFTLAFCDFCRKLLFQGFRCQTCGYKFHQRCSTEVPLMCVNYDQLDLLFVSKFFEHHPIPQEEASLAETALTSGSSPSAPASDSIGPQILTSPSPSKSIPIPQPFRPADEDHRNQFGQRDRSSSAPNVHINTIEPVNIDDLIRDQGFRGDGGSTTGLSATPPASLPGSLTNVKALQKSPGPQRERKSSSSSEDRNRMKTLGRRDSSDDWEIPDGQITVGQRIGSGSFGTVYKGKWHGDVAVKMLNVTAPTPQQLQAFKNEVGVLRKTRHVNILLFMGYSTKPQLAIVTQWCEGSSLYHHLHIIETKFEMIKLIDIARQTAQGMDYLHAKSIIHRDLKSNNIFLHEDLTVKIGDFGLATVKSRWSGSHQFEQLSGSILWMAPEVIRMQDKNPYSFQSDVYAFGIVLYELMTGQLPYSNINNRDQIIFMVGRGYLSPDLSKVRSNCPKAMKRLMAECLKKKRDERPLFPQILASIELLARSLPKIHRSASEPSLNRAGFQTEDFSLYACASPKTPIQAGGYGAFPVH
In series [5] the target is Protein kinase C theta type (Homo sapiens, UniProt Q04759). The series can be described thus: Inhibition of PKCtheta.
Protein kinase C theta type, sequence (Q04759 whole entry): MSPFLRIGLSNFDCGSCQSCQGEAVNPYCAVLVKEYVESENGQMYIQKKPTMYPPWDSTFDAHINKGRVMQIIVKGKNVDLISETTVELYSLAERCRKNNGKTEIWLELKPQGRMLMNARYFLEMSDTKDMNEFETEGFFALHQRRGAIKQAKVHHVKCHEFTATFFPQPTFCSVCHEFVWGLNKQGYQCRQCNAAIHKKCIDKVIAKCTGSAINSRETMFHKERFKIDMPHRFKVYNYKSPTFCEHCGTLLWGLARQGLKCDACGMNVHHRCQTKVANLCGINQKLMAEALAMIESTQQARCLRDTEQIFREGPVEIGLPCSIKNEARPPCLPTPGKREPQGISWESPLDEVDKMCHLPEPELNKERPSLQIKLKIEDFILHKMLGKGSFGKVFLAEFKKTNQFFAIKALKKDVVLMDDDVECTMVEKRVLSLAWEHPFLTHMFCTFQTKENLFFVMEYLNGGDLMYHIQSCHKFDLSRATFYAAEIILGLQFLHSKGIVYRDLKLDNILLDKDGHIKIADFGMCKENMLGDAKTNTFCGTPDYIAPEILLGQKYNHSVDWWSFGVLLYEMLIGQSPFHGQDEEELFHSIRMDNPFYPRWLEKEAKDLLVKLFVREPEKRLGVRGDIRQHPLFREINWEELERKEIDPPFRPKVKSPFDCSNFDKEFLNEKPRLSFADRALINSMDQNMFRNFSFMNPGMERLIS
Series [6] has as its target Glycogen synthase kinase-3 beta (Homo sapiens, UniProt P49841). The series can be described thus: Inhibition of GSK3beta.
Series [7] has as its target Mitogen-activated protein kinase 14 (Homo sapiens, UniProt Q16539). Put plainly: Inhibition of p38alpha.
Series [8] addresses Mitogen-activated protein kinase 8 (Homo sapiens, UniProt P45983). Put plainly: Inhibition of JNK1.
In series [9] the target is Mitogen-activated protein kinase 3 (Homo sapiens, UniProt P27361). The series can be described thus: Inhibition of ERK1.
Mitogen-activated protein kinase 3, sequence (P27361 whole entry): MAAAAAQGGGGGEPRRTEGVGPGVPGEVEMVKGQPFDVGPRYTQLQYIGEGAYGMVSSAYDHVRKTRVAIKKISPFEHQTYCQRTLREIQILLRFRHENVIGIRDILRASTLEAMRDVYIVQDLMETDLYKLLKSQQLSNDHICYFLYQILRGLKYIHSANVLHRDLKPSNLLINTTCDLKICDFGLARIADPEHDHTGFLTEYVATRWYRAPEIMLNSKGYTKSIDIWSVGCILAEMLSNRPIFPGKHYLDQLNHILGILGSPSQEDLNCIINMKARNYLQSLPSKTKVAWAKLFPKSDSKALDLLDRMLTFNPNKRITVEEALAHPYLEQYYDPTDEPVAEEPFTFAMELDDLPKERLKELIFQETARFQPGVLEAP
Series [10] concerns the target T2, Inhibitor of nuclear factor kappa-B kinase subunit beta (Homo sapiens, UniProt O14920).
T2 sequence (O14920 whole entry): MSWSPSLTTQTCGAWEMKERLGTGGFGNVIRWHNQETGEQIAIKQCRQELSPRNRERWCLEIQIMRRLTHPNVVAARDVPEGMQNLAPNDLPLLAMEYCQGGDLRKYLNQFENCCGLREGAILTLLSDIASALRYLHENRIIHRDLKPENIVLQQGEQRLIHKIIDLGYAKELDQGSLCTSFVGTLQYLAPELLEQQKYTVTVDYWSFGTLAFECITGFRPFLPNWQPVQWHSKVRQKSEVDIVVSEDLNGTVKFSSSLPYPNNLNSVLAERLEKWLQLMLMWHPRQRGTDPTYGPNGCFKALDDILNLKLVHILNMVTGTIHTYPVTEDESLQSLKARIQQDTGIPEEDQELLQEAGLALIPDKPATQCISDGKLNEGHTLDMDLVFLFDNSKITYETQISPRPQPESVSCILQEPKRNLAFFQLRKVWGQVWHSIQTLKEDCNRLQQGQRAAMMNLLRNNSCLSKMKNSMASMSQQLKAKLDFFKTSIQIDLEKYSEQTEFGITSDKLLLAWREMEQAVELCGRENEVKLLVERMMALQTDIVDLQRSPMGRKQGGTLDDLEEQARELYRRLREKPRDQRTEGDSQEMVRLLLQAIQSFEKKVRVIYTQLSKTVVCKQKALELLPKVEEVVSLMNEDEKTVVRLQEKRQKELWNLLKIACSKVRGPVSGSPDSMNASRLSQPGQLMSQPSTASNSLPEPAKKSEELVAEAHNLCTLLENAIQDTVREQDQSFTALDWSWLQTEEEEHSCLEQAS
The series can be described thus: Inhibition of IKKbeta.

For series [11], the target named is Mitogen-activated protein kinase kinase kinase 1 (Homo sapiens, UniProt Q13233). Put plainly: Inhibition of MEKK1.
Mitogen-activated protein kinase kinase kinase 1, sequence (Q13233 whole entry): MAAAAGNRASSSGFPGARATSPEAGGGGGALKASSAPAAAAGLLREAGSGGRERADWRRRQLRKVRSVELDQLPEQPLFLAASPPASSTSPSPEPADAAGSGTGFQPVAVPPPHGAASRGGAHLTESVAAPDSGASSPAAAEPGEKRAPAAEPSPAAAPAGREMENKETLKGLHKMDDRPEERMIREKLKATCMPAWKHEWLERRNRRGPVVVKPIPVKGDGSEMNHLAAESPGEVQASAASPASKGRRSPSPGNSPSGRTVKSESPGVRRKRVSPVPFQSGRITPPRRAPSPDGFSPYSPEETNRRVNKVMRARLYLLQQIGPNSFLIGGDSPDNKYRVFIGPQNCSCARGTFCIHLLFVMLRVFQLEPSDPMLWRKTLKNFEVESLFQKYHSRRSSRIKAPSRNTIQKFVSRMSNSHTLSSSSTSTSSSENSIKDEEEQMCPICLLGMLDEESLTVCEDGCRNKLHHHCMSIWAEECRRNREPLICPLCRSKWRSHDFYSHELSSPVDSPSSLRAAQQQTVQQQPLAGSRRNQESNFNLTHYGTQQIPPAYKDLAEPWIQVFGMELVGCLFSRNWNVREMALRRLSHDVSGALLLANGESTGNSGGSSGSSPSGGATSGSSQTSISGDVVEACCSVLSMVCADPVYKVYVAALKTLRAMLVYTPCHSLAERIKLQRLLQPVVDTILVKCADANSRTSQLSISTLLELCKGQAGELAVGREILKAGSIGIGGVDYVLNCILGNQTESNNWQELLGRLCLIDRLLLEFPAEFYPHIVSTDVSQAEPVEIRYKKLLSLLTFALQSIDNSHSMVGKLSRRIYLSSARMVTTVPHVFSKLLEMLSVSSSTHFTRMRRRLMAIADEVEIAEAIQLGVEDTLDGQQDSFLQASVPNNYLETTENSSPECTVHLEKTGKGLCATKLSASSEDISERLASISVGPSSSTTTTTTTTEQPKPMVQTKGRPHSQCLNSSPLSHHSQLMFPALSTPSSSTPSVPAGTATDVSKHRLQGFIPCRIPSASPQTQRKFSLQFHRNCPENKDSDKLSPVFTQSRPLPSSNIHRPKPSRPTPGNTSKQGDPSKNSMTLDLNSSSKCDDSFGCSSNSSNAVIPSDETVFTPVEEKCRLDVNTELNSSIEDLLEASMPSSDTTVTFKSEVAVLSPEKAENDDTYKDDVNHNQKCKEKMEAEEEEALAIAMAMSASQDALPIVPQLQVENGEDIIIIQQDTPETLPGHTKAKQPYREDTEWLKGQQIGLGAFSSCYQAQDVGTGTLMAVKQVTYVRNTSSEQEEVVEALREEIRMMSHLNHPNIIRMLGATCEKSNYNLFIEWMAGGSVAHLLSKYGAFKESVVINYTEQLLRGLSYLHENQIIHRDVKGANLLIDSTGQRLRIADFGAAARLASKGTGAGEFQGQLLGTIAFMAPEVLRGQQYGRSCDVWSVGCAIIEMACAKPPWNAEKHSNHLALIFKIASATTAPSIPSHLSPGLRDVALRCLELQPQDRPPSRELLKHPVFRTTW
In series [12] the target is T3, Mitogen-activated protein kinase kinase kinase 6 (Homo sapiens, UniProt O95382).
T3 sequence (O95382 whole entry): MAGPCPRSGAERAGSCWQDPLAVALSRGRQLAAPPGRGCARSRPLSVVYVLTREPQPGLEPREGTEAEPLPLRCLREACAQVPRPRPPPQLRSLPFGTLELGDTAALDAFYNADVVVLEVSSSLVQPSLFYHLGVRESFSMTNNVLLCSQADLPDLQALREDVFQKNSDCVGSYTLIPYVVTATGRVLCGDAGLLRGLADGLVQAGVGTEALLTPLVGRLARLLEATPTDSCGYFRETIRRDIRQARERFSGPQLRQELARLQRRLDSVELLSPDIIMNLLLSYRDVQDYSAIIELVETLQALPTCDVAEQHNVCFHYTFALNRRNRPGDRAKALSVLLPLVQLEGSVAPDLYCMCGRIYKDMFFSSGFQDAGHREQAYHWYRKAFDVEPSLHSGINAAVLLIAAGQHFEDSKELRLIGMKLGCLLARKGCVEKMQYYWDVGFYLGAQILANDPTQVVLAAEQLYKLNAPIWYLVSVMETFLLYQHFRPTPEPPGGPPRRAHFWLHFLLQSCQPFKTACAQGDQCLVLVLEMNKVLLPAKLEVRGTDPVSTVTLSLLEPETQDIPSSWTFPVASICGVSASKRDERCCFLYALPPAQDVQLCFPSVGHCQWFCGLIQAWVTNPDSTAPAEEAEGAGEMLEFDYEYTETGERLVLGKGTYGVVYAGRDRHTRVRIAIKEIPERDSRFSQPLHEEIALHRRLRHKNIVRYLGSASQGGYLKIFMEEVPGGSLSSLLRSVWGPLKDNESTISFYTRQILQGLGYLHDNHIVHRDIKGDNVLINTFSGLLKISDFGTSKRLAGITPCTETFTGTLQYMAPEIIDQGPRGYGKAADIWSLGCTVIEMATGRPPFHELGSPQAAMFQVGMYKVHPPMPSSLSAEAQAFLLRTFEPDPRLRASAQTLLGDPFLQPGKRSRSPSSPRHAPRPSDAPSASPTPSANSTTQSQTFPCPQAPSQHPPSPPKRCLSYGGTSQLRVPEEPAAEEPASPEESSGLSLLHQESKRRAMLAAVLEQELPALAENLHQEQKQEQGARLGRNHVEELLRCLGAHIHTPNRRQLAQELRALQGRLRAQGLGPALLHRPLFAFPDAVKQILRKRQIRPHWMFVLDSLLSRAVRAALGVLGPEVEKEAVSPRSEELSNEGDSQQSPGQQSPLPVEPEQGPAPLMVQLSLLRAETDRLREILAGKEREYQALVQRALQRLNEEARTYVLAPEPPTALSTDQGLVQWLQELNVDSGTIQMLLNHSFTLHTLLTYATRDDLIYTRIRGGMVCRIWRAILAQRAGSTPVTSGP
Put plainly: Inhibition of ASK2.

Glycogen synthase kinase-3 beta, sequence (P49841 whole entry): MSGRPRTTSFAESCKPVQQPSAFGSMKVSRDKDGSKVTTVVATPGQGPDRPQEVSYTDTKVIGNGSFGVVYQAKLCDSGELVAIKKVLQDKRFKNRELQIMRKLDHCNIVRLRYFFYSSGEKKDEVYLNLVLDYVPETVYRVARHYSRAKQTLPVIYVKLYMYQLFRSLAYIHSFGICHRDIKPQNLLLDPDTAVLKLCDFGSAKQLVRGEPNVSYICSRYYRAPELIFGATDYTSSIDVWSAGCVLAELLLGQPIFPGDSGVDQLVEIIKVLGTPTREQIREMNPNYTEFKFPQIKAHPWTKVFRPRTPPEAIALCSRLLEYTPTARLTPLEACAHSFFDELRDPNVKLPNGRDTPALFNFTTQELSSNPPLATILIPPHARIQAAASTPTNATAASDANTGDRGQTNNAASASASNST
Mitogen-activated protein kinase 8, sequence (P45983 whole entry): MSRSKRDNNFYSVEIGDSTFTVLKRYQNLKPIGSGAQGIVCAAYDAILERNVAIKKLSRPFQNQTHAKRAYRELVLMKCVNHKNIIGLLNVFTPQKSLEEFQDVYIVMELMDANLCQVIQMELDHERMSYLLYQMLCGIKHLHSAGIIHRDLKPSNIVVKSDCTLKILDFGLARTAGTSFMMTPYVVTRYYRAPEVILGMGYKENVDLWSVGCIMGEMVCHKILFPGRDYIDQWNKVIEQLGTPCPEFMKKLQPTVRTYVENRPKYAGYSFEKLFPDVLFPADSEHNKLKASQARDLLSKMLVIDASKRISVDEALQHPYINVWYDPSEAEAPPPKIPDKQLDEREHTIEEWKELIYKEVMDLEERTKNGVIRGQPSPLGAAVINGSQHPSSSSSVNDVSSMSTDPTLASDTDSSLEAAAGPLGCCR
Mitogen-activated protein kinase 14, sequence (Q16539 whole entry): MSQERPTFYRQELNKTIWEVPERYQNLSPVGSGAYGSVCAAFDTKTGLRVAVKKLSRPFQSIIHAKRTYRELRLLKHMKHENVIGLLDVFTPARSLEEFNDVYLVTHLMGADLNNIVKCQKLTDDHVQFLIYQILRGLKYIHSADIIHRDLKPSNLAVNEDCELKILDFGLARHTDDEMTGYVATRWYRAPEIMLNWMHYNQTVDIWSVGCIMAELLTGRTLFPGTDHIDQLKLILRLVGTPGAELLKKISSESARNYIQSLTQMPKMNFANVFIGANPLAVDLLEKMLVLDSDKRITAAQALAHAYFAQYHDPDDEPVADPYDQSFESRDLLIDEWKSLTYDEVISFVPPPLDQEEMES
Description for physchem: Lipophilicity, log D of the compound at pH 7.4

With `CC(C)(C)c1ccc(C(=O)Nc2cn3cc(CO)ccc3n2)cc1`, the IC50 in [1] worked out at 129 nM. Further, the logD in “physchem” was 2.83.

Turning to `CC(C)(C)c1ccc(C(=O)Nc2cn3cc(Br)ccc3n2)cc1`, in [1], the IC50 worked out at 21 nM. This compound yielded a logD in the series “physchem” of 4.17.

For `CC(C)(C)c1ccc(C(=O)Nc2cn3cc(-n4cccc4)ccc3n2)cc1`, in series [1], the IC50 stood at 30 nM.

As to `Cc1ccc2nc(NC(=O)c3ccc(C(C)(C)C)cc3)sc2c1`, the IC50 in series [1] was determined as 260 nM. In addition, the logD in the series “physchem” turned out to be 5.08.

For `Cc1ccc2nc(NC(=O)c3ccc(C(C)(C)C)cc3)cn2c1`, the IC50 in series [1] stood at 22 nM. In “physchem”, this compound returned a logD of 3.78.

With `CC(C)(C)c1ccc(C(=O)Nc2cn3cc(-n4ccnc4)ccc3n2)cc1` [listing 1 of 3 here], the logD in the series “physchem” was found to be 3.16.

Regarding `CC(C)(C)c1ccc(C(=O)Nc2cn3cc(-c4cccnc4)ccc3n2)cc1`, the half-maximal inhibitory concentration (IC50) in series [1] is 21 nM. In addition, in “physchem”, the logD amounted to 3.6.

With `CC(C)(C)c1ccc(C(=O)Nc2cn3cc(-n4ccnc4)ccc3n2)cc1` [listing 2 of 3 here], in the series on INS1 [2], the inhibition entry is “Dose-dependent effect”. For the same compound, the inhibition result in the series with INS1 [3] was “Active”.

On to `CNCc1ccc2nc(NC(=O)c3ccc(C(C)(C)C)cc3)cn2c1`, for which the IC50 in [1] is 870 nM. Further, in “physchem”, the logD was determined as 2.4.

Consider `CC(C)(C)c1ccc(C(=O)Nc2cn3cc(-c4ccccc4)ccc3n2)cc1`, for which the IC50 in series [1] came to 82 nM. The compound further gave a logD in “physchem” of 4.83.

`CC(C)(C)c1ccc(C(=O)Nc2cn3cc(F)ccc3n2)cc1`: the IC50 in series [1] worked out at 34 nM. The logD in “physchem” stood at 3.55.

As for `CC(C)(C)c1ccc(C(=O)Nc2cn3cc(Cl)ccc3n2)cc1`, the IC50 in series [1] is 16 nM. For the same compound, in the series “physchem”, the logD was 4.04.

As for `CC(C)(C)c1ccc(C(=O)Nc2cn3cc(-n4ccnc4)ccc3n2)cc1` [listing 3 of 3 here], the IC50 in series [4], in series [5], in series [6], in [7], in series [8] and in [9] was > 10000 nM throughout. Moreover, the figures for the IC50 in series [10], in series [11] and in series [12] were > 10000 nM, > 10000 nM and 510 nM, respectively.

Consider `CC(C)(CO)c1ccc(C(=O)Nc2cn3cc(-n4ccnc4)ccc3n2)cc1`, for which the IC50 in [1] stood at 32 nM. In “physchem”, the logD amounted to 1.62.

With `CC(C)(O)c1ccc(C(=O)Nc2cn3cc(-n4ccnc4)ccc3n2)cc1`, in series [1], the IC50 stood at 70 nM. The compound also had a logD in “physchem” of 1.27.
